Reference: PubChem BioAssay AID602191 (Broad Institute, 2012)
Calls of active or inactive are those of the source.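 How the source made its calls: active means fitted curve reaches 40% activation at a concentration no higher than the top valid tested dose; inconclusive means flat fit between 30% and 70% activation, or poor fit; inactive means uptake decrease, flat fit within 30% of zero, the rest.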

molecular target: Scavenger receptor class B member 1 (Mus musculus) (UniProt Q61009); experiment: activators of SR-BI-mediated HDL uptake, dose response, cell-based, ldlA[mSR-BI] CHO, DiI fluorescence, cherry-pick (AID 602191); conditions: ldlA[mSR-BI] CHO cells, 3 h;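 further: cell fluorescence from internalized DiI-labeled HDL after washing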;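 on AC40: potency of activators raising HDL uptake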;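 on activation (HDL uptake increase): 0% = median of DMSO wells and 100% = twice the DMSO signal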
Sequence (Q61009 whole entry, looked up): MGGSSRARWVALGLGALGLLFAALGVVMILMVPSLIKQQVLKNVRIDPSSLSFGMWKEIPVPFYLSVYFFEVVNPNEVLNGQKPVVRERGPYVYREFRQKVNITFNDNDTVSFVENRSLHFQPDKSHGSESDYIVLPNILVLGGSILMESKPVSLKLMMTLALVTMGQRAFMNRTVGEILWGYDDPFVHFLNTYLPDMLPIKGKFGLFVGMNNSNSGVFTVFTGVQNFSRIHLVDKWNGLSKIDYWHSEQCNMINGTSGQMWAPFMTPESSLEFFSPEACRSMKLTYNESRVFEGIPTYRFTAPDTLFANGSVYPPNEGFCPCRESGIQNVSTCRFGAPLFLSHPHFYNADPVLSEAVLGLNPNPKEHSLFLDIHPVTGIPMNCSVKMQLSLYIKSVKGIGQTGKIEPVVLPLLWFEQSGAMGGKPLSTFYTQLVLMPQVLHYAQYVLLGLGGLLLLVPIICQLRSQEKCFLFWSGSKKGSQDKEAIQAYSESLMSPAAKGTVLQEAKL

| Compound | AC40 |
| --- | --- |
| CCn1c(C(=O)O)c(CC(=O)NC2CCCCCC2)c2ccccc21 | > 35 µM (inactive) |
| FC(F)(F)c1ccc(C2[C@H]3CN(Cc4cccnc4)[C@H](c4ccccc4)C34CC2(c2cccnc2)C4)cc1 (stereo partly specified) | > 35 µM (inactive) |
| O=C(Cc1ccc(NC(=O)C2CCN(C(=O)C3CC3)CC2)cc1)Nc1ccc(C(=O)N2CCOCC2)cc1 | > 35 µM (inactive) |
| O=c1c(C=NCCN2CCNCC2)c(O)n(C2CCCCC2)c(=O)n1C1CCCCC1 | > 35 µM (inactive) |
| CCOC(=O)C(NC(=O)CC(C)C)(Nc1sc2c(c1C(N)=O)CCCC2)C(F)(F)F (stereo unspecified) | > 35 µM (inactive) |

same assay, conditions: ldlA[mSR-BI] CHO cells, 3 h, at 11 µM (top of the series)

| Compound | activation (HDL uptake increase) |
| --- | --- |
| CC(C)C[C@@H](CN1CCCC1CN1C(=S)NC[C@@H]1Cc1ccc(O)cc1)N1C[C@H](Cc2ccc(O)cc2)N(CC2CCCCC2)C1=S (stereo partly specified) | -10.2% (inactive) |

same assay, conditions: ldlA[mSR-BI] CHO cells, 3 h, at 35 µM (top of the series)

| Compound | activation (HDL uptake increase) |
| --- | --- |
| O=C(O)CCc1nnc(SCC(=O)Nc2ccc(Br)cc2)[nH]c1=O | -2.46% (inactive) |
| COc1ccc(/C(O)=C2/C(=O)C(=O)N(CCN3CCOCC3)C2c2ccccn2)cc1 (stereo unspecified) | -1.9% (inactive) |
| NC(=O)C1CCN(C(=O)C2CC(=O)N(c3ccc4c(c3)OCCO4)C2)CC1 (stereo unspecified) | -4.66% (inactive) |
| C=CCn1c(SCC(=O)N(CC)C2CCS(=O)(=O)C2)nnc1-c1ccccc1 (stereo unspecified) | -7.41% (inactive) |
| O=C1NCCCC1C(=O)NCCNC(=O)C(F)(F)F (stereo unspecified) | -6.55% (inactive) |
| CC(C)(C)OC(=O)NCCCC[C@H](NC(=O)c1nc[nH]c1C(=O)NC(c1ccccc1)c1ccccc1)C(=O)OC(C)(C)C | -9.52% (inactive) |
| Cc1[nH]c2ccccc2c1C(=O)CSC(=S)N(C)C1CCCCC1 | -5.9% (inactive) |
| Cc1c(C(=O)N2CCC(C(N)=O)CC2)sc(N)c1C#N | -8.06% (inactive) |
| O=S1(=O)CCO[C@H]2Cc3ccccc3[C@H]2N1Cc1ccccc1 | -12.6% (inactive) |
| Cc1c(CC(=O)O)c(=O)oc2cc(OCc3ccc(F)cc3Cl)ccc12 | 10.2% (inactive) |
| COCCNC(=O)c1onc(CSc2ccc(F)c(F)c2)c1C(=O)O | -4.96% (inactive) |
| O=C(CCSc1nnc(-c2ccco2)o1)Nc1ccc(Cl)cc1 | -2.84% (inactive) |
| Cc1ccc(NC(=O)c2nc[nH]c2C(=O)NCCN(CCNC(=O)c2[nH]cnc2C(=O)Nc2ccc(C)cc2)CCNC(=O)c2[nH]cnc2C(=O)Nc2ccc(C)cc2)cc1 | 8.14% (inactive) |
| CC(C)CC(CO)N1CCN(C(=O)c2cccc(C(F)(F)F)c2)CCC1=O (stereo unspecified) | -7.8% (inactive) |
| CCN1CCN(c2ccc(S(=O)(=O)N3CCCCC3)cc2NC(=O)c2cccc(C(F)(F)F)c2)CC1 | 7.47% (inactive) |
| Cc1ccc(S(=O)(=O)N2CCC(=O)N(CCOCc3cccc(F)c3)CC2)cc1 | 5.46% (inactive) |
| C=CCn1c(C(CCC(C)C)CC(C)(C)O)n[nH]c1=S (stereo unspecified) | 7.72% (inactive) |
| Cc1cccc(N2CCN(C(=S)c3ccc(-c4ccccc4[N+](=O)[O-])o3)CC2)c1 | -6.03% (inactive) |
| Cc1cccc(NC(=O)CCC(=O)OCc2ccc(Br)cc2)c1 | -7.9% (inactive) |
| COc1ccc(C(=O)C2CCCN(C(=O)/C=C/c3ccccn3)C2)c(C)c1 (stereo unspecified) | -6.34% (inactive) |
| O=C1NC[C@H](Cc2ccccc2)N(C[C@H]2CCCN2C[C@H](Cc2ccccc2)N2C[C@H](Cc3ccccc3)N(CC3CCCCC3)C(=O)C2=O)C1=O | 11.2% (inactive) |
| CN1CCN(C(=O)C2=C[C@@H](c3coc4ccccc4c3=O)C[C@@H](OCCCCO)O2)CC1 | -7.43% (inactive) |
| CC(C)N1CCc2[nH]c(=S)[nH]c(=O)c2C1 | -0.502% (inactive) |
| Cc1ccc(NC(=O)CSc2nc3nc(C)c(Br)cc3[nH]2)cc1F | -7.04% (inactive) |

| Compound | activation (HDL uptake increase) |
| --- | --- |
| COc1ccc(-n2nc3c(c2NC(=O)c2ccc(S(=O)(=O)N4CCOCC4)cc2)CS(=O)C3)cc1 (stereo unspecified) | -10.8% (inactive) |
| CCN1C(=O)C(CC(=O)NC2CCCCC2)N(CC)C1=O (stereo unspecified) | 7.58% (inactive) |
| COC(=O)[C@@H]1C[C@@]2(O)[C@H](O)[C@H](O)[C@H](O)C[C@H]2N1Cc1cccc2ccccc12 | 8.8% (inactive) |
| CC(C)CN(C(=O)CN1C(=O)C2CCCCC2C1=O)c1c(N)n(Cc2ccccc2)c(=O)[nH]c1=O (stereo unspecified) | -7.25% (inactive) |
| CCC(C)(C)NC(=O)C(c1cccnc1)N(CCOC)C(=O)Cn1nnc2ccccc21 (stereo unspecified) | -4.87% (inactive) |
| Cc1nn(-c2ccccc2)nc1CNC(=O)C(C)Cc1ccccc1 (stereo unspecified) | -12.5% (inactive) |
| Cc1ccc(C(c2nnnn2C2CCCCC2)N2CCN3CCCC3C2)cc1 (stereo unspecified) | -9.01% (inactive) |
| COC(=O)Cc1c(C)c2ccc(OCc3nn[nH]n3)cc2oc1=O | 4.87% (inactive) |
| Cc1cc(N2C(=O)C3C4C=CC(C4)C3C2=O)no1 (stereo unspecified) | -2.45% (inactive) |
| CCCCC/C=C\C[C@H](O)/C=C/c1cccc(C[C@H](O)CCCCO)n1 | -14% (inactive) |
| CCOC(=O)C1CCCN(C(=S)Nc2cccc(Cl)c2C)C1 (stereo unspecified) | -3.98% (inactive) |
| COc1ccccc1CN1C(=O)CCC1(C)C(=O)NCc1cccnc1 (stereo unspecified) | -8.82% (inactive) |
| CCN1CCN(C(=O)/C(=C/c2ccco2)NC(=O)c2ccccc2)CC1 | -3.29% (inactive) |
| CC(=O)N1C2CCCCC2S[C@H]2CCCCC21 (stereo partly specified) | -4.16% (inactive) |
| Cc1ccc(S(=O)(=O)CCC(=O)OCC(=O)Nc2cc(S(=O)(=O)N3CCOCC3)ccc2Cl)cc1 | -6.57% (inactive) |
| Cc1cccc(C)c1OCc1cc(C(=O)N2CCC(c3ccccc3)CC2)no1 | 2.24% (inactive) |
| COc1ccc2oc(C(=O)OCC(=O)Nc3ccc(C(=O)N(C)C)cc3)c(C)c2c1 | -13.1% (inactive) |
| CCCC(=O)OCC(=O)Nc1ccc(OC(F)F)cc1 | 1.74% (inactive) |
| C=CCOC(=O)C1=C[C@H](c2ccc(C(F)(F)F)cc2)C[C@H](OCCCCO)O1 | -10.3% (inactive) |
| CCC1C(=O)NCCN1C(=O)c1ccc(OC)c(OC2CCN(C(C)=O)CC2)c1 (stereo unspecified) | -6.7% (inactive) |
| COc1cccc(OCc2cc(C(=O)NC3CCOCC3)no2)c1 | -16.2% (inactive) |
| Nc1nc(SCC(=O)OCc2ccccc2)[nH]c(=O)c1NC(=O)c1ccco1 | 4.16% (inactive) |
| O=C(C1CCC(=O)N(C2CCCC2)C1)N1CCN(Cc2cccc(Cl)c2)CC1 (stereo unspecified) | -5.02% (inactive) |
| COC(=O)c1ccc([C@@H](O)[C@H](C)C(=O)CC(=O)OC(C)(C)C)cc1 | 4.09% (inactive) |

| Compound | activation (HDL uptake increase) |
| --- | --- |
| CC[C@]12c3[nH]c4cc(-c5ccco5)ccc4c3CCN1C(=O)[C@@H](CC(=O)NC(C)(C)C)C[C@@H]2C(=O)N1CCN(C(=O)c2ccco2)CC1 | -20.6% (inactive) |
| CCOC(CNC(=O)C1CCN(S(=O)(=O)c2ccc3nc4c(c(C(=O)O)c3c2)CCCCC4)CC1)OCC | 5.08% (inactive) |
| O=C(COC(=O)C1CC1)Nc1ccc(OC(F)F)cc1 | 4.41% (inactive) |
| COc1ccc(N2CCN(c3oc(-c4ccco4)nc3C#N)CC2)cc1 | 1.24% (inactive) |
| Cn1cc(CN2CCC(O)CC2)c(-c2ccc(Oc3ccccc3)cc2)n1 | -5.7% (inactive) |
| CC(C)(C)c1ccccc1NC(=O)CN1C(=O)NC2(CCCCCC2)C1=O | -12.4% (inactive) |
| O=C(CNC(=O)c1ccc(Cl)cc1)NCC(F)(F)F | -9.51% (inactive) |
| CC(=O)Nc1ccc(OC(=O)c2ccco2)cc1 | -1.69% (inactive) |
| Cc1csc(SCC(=O)Nc2cc(C(N)=O)cc(C(N)=O)c2)n1 | -3.94% (inactive) |
| CCOC(=O)C1CCN(S(=O)(=O)c2cc(C(=O)N3CCCCC3)ccc2OC)CC1 | -3.08% (inactive) |
| Nc1nonc1-n1nnc(C(=O)N/N=C/c2cccs2)c1CSc1ccccc1 | -1.92% (inactive) |
| N#C/C(=C/c1cn(-c2ccccc2)nc1-c1cccc(OCc2ccccc2)c1)C(=O)NCCCn1ccnc1 | 12.2% (inactive) |
| O=C(O)CCn1cc(/C=C/C(=O)c2ccc(Cl)cc2)c(-c2ccc(Br)cc2)n1 | -9.53% (inactive) |
| O=C(c1ccc(CS(=O)Cc2ccccc2Cl)o1)N1CCN(C2CCCCC2)CC1 (stereo unspecified) | 2.09% (inactive) |
| CCc1ccccc1NC(=O)CN1CCC(NC(=O)COC)CC1 | -1.48% (inactive) |
| O=S(=O)(NCCc1cn2ccccc2n1)c1ccc(-c2ccccc2)cc1 | -1.66% (inactive) |
| CCCCc1nc2cc(C(=O)NCc3ccccn3)ccc2o1 | -3.25% (inactive) |
| CC(C)C[C@H](NC(=O)c1nc[nH]c1C(=O)NC1CCN(C(=O)OC(C)(C)C)CC1)C(=O)OC(C)(C)C | -3.21% (inactive) |
| CCOC(=O)c1csc(NC(=O)CN2CCN(C)CC2)n1 | 10.4% (inactive) |
| Cc1cccc(N2C(=O)N3[C@H](c4ccc(Br)cc4)[C@@H]4C(=O)N(C(C)(C)C)C(=O)[C@@H]4[C@]3(C)C2=O)c1 | 6.14% (inactive) |
| COc1ccccc1N(C(=O)c1snc(C(N)=O)c1N)C(C(=O)NCCC(C)C)c1ccco1 (stereo unspecified) | 7.43% (inactive) |
| O=C(c1ccc(CS(=O)Cc2ccccc2Cl)o1)N1CCN(c2ccccn2)CC1 (stereo unspecified) | -16.3% (inactive) |
